Test results reported in US20060264419A1 (priority 2003, published 2006).

What was measured:
[1] = target: T1, 5 HT2C receptor (Homo sapiens, UniProt P28335); test: affinity to the 5 HT2C receptor; format: binding
T1 sequence (P28335 33-458): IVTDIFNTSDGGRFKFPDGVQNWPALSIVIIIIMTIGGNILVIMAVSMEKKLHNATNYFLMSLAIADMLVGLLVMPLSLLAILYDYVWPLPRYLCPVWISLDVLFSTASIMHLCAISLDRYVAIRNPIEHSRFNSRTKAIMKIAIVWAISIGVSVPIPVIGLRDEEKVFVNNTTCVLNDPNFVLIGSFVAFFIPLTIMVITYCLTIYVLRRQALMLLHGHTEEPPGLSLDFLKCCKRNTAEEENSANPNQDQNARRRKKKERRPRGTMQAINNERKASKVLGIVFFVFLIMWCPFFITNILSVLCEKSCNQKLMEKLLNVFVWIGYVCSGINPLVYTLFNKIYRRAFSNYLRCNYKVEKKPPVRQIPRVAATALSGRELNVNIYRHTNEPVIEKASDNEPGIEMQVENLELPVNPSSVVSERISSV

[2] = target: 5-HT2A receptors (Rattus norvegicus, UniProt P14842); test: in-vitro affinity to 5-HT2A receptors, displacement of [3H]ketanserine (Example A1); format: binding; details: read-out: HT2A IC50
From the text: The 5-HT2A receptors are exposed both to [^3H]ketanserine (a substance which is known for its affinity to the receptor) and also to the test compound. The decrease in the affinity of [^3H]ketanserine to the receptor is an indication of the affinity of the test substance to the 5-HT2A receptor.

5-HT2A receptors, sequence (P14842 whole entry): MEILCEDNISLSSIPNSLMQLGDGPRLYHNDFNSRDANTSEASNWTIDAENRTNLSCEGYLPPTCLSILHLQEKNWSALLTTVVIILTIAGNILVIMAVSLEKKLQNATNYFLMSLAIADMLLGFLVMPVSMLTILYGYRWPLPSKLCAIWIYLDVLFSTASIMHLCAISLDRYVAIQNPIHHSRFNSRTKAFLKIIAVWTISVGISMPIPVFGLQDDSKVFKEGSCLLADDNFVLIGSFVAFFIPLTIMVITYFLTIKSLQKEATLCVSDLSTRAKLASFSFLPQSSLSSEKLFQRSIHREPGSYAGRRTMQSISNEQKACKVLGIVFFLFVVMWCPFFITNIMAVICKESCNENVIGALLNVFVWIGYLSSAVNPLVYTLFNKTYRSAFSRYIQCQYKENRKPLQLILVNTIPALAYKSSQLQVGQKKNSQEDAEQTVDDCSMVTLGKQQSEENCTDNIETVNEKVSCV

CN1CCN(Cc2cnn(-c3ccc(-c4cc(F)ccc4F)cc3)c2-c2ccc(F)cc2)CC1 [Example 1021, 1-[1-(2′,5′-Difluorobiphenyl-4-yl)-5-(4-fluoro-phenyl)-1H-pyrazol-4-ylmethyl]-4-methyl-piperazine]
IC50 [1]: 1000 nM | IC50 [2]: 240 nM

Fc1ccccc1-c1c(CNc2ccon2)cnn1-c1ccc(-c2ccccc2)cc1 [Example 1022, [1-Biphenyl-4-yl-5-(2-fluorophenyl)-1H-pyrazol-4-ylmethyl]isoxazol-3-ylamine]
IC50 [1]: 1000 nM | IC50 [2]: 240 nM

CN(C)CCN(C)Cc1cnn(-c2ccc(-c3ccc(F)cc3)cc2)c1-c1ccc(Cl)cc1 [Example 1024, N-[5-(4-Chlorophenyl)-1-(4′-fluoro-biphenyl-4-yl)-1H-pyrazol-4-ylmethyl]-N,N′,N′-trimethyl-ethane-1,2-diamine]
IC50 [1]: 1000 nM | IC50 [2]: 240 nM

Fc1ccc(-c2ccc(-n3ncc(CN4CCN(C5CCCC5)CC4)c3-c3ccccc3Cl)cc2)cc1 [Example 1027, 1-[5-(2-Chlorophenyl)-1-(4′-fluoro-biphenyl-4-yl)-1H-pyrazol-4-ylmethyl]-4-cyclopentylpiperazine]
IC50 [1]: 1000 nM | IC50 [2]: 260 nM

CN1CCN(Cc2cnn(-c3ccc(OC(F)(F)F)cc3)c2-c2ccccc2F)CC1 [Example 1029, 1-[5-(2-Fluorophenyl)-1-(4-trifluoromethoxy-phenyl)-1H-pyrazol-4-ylmethyl]-4-methyl-piperazine]
IC50 [1]: 490 nM | IC50 [2]: 270 nM

CN1CCN(Cc2cnn(-c3ccc(-c4ccccc4)cc3)c2-c2cccnc2)CC1 [Example 1035, 1-(1-Biphenyl-4-yl-5-pyridin-3-yl-1H-pyrazol-4-ylmethyl)-4-methylpiperazine]
IC50 [1]: 1000 nM | IC50 [2]: 290 nM

CCN1CCN(Cc2cnn(-c3ccc(-c4ccc(F)cc4)cc3)c2-c2ccc(Cl)cc2)CC1 [Example 1037, 1-[5-(4-Chlorophenyl)-1-(4′-fluoro-biphenyl-4-yl)-1H-pyrazol-4-ylmethyl]-4-ethylpiperazine]
IC50 [1]: 1000 nM | IC50 [2]: 310 nM

O=C1NCN(c2ccccc2)C12CCN(Cc1cnn(-c3ccc(-c4ccccc4)cc3)c1-c1ccccc1F)CC2 [Example 1051, 8-[1-Biphenyl-4-yl-5-(2-fluorophenyl)-1H-pyrazol-4-ylmethyl]-1-phenyl-1,3,8-triaza-spiro[4.5]decan-4-one]
IC50 [1]: 1000 nM | IC50 [2]: 400 nM

CC(C)N1CCN(Cc2cnn(-c3ccc(-c4ccc(F)cc4)cc3)c2-c2ccc(Cl)cc2)CC1 [Example 1054, 1-[5-(4-Chlorophenyl)-1-(4′-fluoro-biphenyl-4-yl)-1H-pyrazol-4-ylmethyl]-4-isopropylpiperazine]
IC50 [1]: 1000 nM | IC50 [2]: 440 nM

COc1ccccc1-c1c(CN2CCN(C)CC2)cnn1-c1ccc(-c2ccsc2)cc1 [Example 1055, 1-[5-(2-Methoxyphenyl)-1-(4-thiophen-3-yl-phenyl)-1H-pyrazol-4-ylmethyl]-4-methyl-piperazine]
IC50 [1]: 300 nM | IC50 [2]: 460 nM

CN1CCN(Cc2cnn(-c3ccc(-c4ccc(F)cc4)cc3)c2-c2ccc(Cl)cc2)CC1 [Example 1057, 1-[5-(4-Chlorophenyl)-1-(4′-fluoro-biphenyl-4-yl)-1H-pyrazol-4-ylmethyl]-4-methylpiperazine]
IC50 [1]: 1000 nM | IC50 [2]: 460 nM
